# ChEMBL document CHEMBL1141922, “Benzimidazoles as non-peptide luteinizing hormone-releasing hormone (LHRH) antagonists. Part 3: Discovery of 1-(1H-benzimidazol-5-yl)-3-tert-butylurea derivatives” (Bioorg Med Chem Lett, 2005)
# Assays:
# [1] = target: T1, Gonadotropin-releasing hormone receptor (Rattus norvegicus, UniProt P30969); assay: Inhibitory concentration against rat leutinizing releasing hormone receptor
# T1 sequence (P30969 whole entry): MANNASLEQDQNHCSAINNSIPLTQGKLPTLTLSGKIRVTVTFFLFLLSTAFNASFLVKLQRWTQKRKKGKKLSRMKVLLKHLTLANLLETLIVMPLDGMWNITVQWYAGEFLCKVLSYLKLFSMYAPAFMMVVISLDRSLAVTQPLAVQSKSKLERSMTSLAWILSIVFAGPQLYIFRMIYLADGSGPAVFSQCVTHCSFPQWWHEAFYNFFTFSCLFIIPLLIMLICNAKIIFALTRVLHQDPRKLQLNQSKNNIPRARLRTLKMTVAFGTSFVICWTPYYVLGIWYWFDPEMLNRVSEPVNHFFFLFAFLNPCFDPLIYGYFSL
# [2] = target: T2, Gonadotropin-releasing hormone receptor (Homo sapiens, UniProt P30968); assay: Inhibitory concentration against human leutinizing releasing hormone receptor
# T2 sequence (P30968 whole entry): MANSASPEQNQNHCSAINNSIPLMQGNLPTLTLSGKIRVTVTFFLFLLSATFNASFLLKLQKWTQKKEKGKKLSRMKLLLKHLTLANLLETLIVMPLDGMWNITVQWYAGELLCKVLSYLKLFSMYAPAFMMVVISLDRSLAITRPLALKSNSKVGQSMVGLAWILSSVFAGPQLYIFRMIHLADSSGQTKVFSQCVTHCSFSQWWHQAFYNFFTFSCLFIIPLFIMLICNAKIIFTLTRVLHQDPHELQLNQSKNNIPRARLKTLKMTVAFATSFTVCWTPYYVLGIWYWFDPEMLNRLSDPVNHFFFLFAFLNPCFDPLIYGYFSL
Structure (SMILES),IC50 [1] [nM],IC50 [2] [nM]
COc1ccc([N+](=O)[O-])cc1CSc1nc2cc(NC(=O)NC(C)(C)C)ccc2n1Cc1ccccn1,670,43
COc1ccc([N+](=O)[O-])cc1CSc1nc2cc(NC(=O)NC(C)(C)C)ccc2n1-c1ccccc1,> 2600,350
COc1ccc([N+](=O)[O-])cc1CSc1nc2cc(NC(=O)C3CC3)ccc2n1C(C)C,> 8200,280
CNC(=O)Nc1ccc2c(c1)nc(SCc1cc([N+](=O)[O-])ccc1OC)n2C(C)C,> 10000,3300
COc1ccccc1CSc1nc2cc(NC(=O)C3CC3)ccc2n1C(C)C,> 10000,2100
CC(C)n1c(SCc2ccccc2Cl)nc2cc(NC(=O)C3CC3)ccc21,> 10000,6300
CCn1c(SCc2cc([N+](=O)[O-])ccc2OC)nc2cc(NC(=O)NC(C)(C)C)ccc21,170,42
COc1ccc([N+](=O)[O-])cc1CSc1nc2cc(NC(=O)OC(C)(C)C)ccc2n1C(C)C,710,880
COC(=O)c1ccc(OC)c(CSc2nc3cc(NC(=O)C4CC4)ccc3n2C(C)C)c1,> 10000,980
COc1ccc(Cl)cc1CSc1nc2cc(NC(=O)C3CC3)ccc2n1C(C)C,> 10000,160
COc1ccc([N+](=O)[O-])cc1CSc1nc2cc(NC(=O)NC(C)(C)C)ccc2n1C1CC1,860,79
COCCn1c(SCc2cc([N+](=O)[O-])ccc2OC)nc2cc(NC(=O)NC(C)(C)C)ccc21,280,57
COc1ccc(C#N)cc1CSc1nc2cc(NC(=O)C3CC3)ccc2n1C(C)C,> 10000,570
COc1ccc([N+](=O)[O-])cc1CSc1nc2cc(NC(=O)NC(C)C)ccc2n1C(C)C,280,600
COc1ccc([N+](=O)[O-])cc1CSc1nc2cc(NC(=O)CC(C)(C)C)ccc2n1C(C)C,110,180
COc1ccc([N+](=O)[O-])cc1CSc1nc2cc(NC(=O)C3CCC3)ccc2n1C(C)C,630,1500
COc1ccc([N+](=O)[O-])cc1CSc1nc2cc(NC(=O)C(C)C)ccc2n1C(C)C,1500,250
COc1ccc([N+](=O)[O-])cc1CSc1nc2cc(NC(=O)C(C)(C)C)ccc2n1C(C)C,> 10000,180
COc1ccc(C(C)=O)cc1CSc1nc2cc(NC(=O)C3CC3)ccc2n1C(C)C,> 10000,260
Cc1cccc(CSc2nc3cc(NC(=O)C4CC4)ccc3n2C(C)C)c1,> 10000,6500
COc1ccc([N+](=O)[O-])cc1CSc1nc2cc(NC(=O)NC(C)(C)C)ccc2n1Cc1ccncc1,240,47
COc1ccc([N+](=O)[O-])cc1CSc1nc2cc(NC(=O)NC3CC3)ccc2n1C(C)C,1600,1900
COc1ccc([N+](=O)[O-])cc1CSc1nc2cc(NC(=O)NC(C)(C)C)ccc2n1C(C)C,62,62
COc1ccc([N+](=O)[O-])cc1CSc1nc2cc(NC(=O)NC(C)(C)C)ccc2n1Cc1cccnc1,150,33
Cc1ccccc1CSc1nc2cc(NC(=O)C3CC3)ccc2n1C(C)C,> 10000,3200

# Other lines, results leading:
IC50 [1] [nM],IC50 [2] [nM],Structure (SMILES)
140,610,CCCn1c(SCc2cc([N+](=O)[O-])ccc2OC)nc2cc(NC(=O)NC(C)(C)C)cc(C(=O)N3CCCC3)c21
280,37,CCCn1c(SCc2cc([N+](=O)[O-])ccc2OC)nc2cc(NC(=O)NC(C)(C)C)cc(C(=O)OC)c21
35,61,CCCn1c(SCc2cc([N+](=O)[O-])ccc2OC)nc2cc(NC(=O)NC(C)(C)C)cc(C(=O)NCc3ccncc3)c21
510,21,CCCn1c(SCc2cc([N+](=O)[O-])ccc2OC)nc2cc(NC(=O)NC(C)(C)C)cc(C(=O)O)c21
120,18,CCCn1c(SCc2cc([N+](=O)[O-])ccc2OC)nc2cc(NC(=O)NC(C)(C)C)ccc21
19,170,CCCn1c(SCc2cc([N+](=O)[O-])ccc2OC)nc2cc(NC(=O)NC(C)(C)C)cc(C(=O)NCCCN(C)C)c21
51,31,CCCn1c(SCc2cc([N+](=O)[O-])ccc2OC)nc2cc(NC(=O)NC(C)(C)C)cc(C(=O)NCc3ccccn3)c21
56,27,CCCn1c(SCc2cc([N+](=O)[O-])ccc2OC)nc2cc(NC(=O)NC(C)(C)C)cc(C(=O)NCCc3ccccn3)c21
300,360,COc1ccc([N+](=O)[O-])cc1CSc1nc2cc(NC(=O)NC(C)(C)C)ccc2n1CCc1ccccc1
23,41,CCCn1c(SCc2cc([N+](=O)[O-])ccc2OC)nc2cc(NC(=O)NC(C)(C)C)cc(C(=O)NC)c21
54,69,CCCn1c(SCc2cc([N+](=O)[O-])ccc2OC)nc2cc(NC(=O)NC(C)(C)C)cc(C(=O)NCc3cccnc3)c21
200,270,CCCn1c(SCc2cc([N+](=O)[O-])ccc2OC)nc2cc(NC(=O)NC(C)(C)C)cc(C(=O)N(C)C)c21
490,410,CCCn1c(SCc2cc([N+](=O)[O-])ccc2OC)nc2cc(NC(=O)NC(C)(C)C)cc(C(=O)NC(C)(C)C)c21
130,120,CCCn1c(SCc2cc([N+](=O)[O-])ccc2OC)nc2cc(NC(=O)NC(C)(C)C)cc(C(=O)NCc3ccccc3)c21
160,28,COc1ccc([N+](=O)[O-])cc1CSc1nc2cc(NC(=O)NC(C)(C)C)ccc2n1Cc1ccccc1
110,160,CCCn1c(SCc2cc([N+](=O)[O-])ccc2OC)nc2cc(NC(=O)NC(C)(C)C)cc(C(=O)NCCc3cccnc3)c21
21,190,CCCn1c(SCc2cc([N+](=O)[O-])ccc2OC)nc2cc(NC(=O)NC(C)(C)C)cc(C(=O)NCCCN(C)Cc3ccccc3)c21
330,23,CCCCn1c(SCc2cc([N+](=O)[O-])ccc2OC)nc2cc(NC(=O)NC(C)(C)C)ccc21
880,210,CCCCCn1c(SCc2cc([N+](=O)[O-])ccc2OC)nc2cc(NC(=O)NC(C)(C)C)ccc21
45,130,CCCn1c(SCc2cc([N+](=O)[O-])ccc2OC)nc2cc(NC(=O)NC(C)(C)C)cc(C(=O)NCCc3ccncc3)c21
55,210,CCCn1c(SCc2cc([N+](=O)[O-])ccc2OC)nc2cc(NC(=O)NC(C)(C)C)cc(C(=O)NCCN)c21
